In article PMC10746543, “Design principles for cyclin K molecular glue degraders” (Nature Chemical Biology, 2023):
Several values for one entry are separate records, joined by “and”; a condition that tells them apart may be missing. Equal values may be shown once. Read-outs that look alike come from different tables or passages of the source. One block for each molecule: values may come before it.

Columns and labels:
[1] = target: T1, CDK12–cyclin K and DDB1 (Homo sapiens, UniProt Q16531+Q9NYV4, K965R); test: TR-FRET ternary complex formation assay (compound titration); assay type: binding; settings: for TR-FRET signal at compound concentration: replicate titrations
T1 construct: His6–CDK12 (a.a. 713–1,052); full-length or beta-propeller B domain deletion (ΔBPB: a.a. 396–705 deleted) constructs of His6–DDB1ΔBPB, StrepII–Avi–DDB1, or His6–Spy–DDB1; made in house; host or cells: Trichoplusia ni High Five insect cells (baculovirus)
T1 sequence (Q9NYV4 713-1052 K965R): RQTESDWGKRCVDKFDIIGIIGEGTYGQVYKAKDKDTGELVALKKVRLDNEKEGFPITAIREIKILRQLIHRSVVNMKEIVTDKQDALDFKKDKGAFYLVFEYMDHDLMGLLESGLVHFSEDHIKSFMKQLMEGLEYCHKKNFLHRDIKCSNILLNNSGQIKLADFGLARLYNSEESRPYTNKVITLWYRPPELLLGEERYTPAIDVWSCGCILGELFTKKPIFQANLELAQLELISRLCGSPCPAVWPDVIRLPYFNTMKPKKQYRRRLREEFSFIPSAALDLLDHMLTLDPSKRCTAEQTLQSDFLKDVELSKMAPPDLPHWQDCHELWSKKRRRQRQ
T1 sequence (O75909 1-267 partner): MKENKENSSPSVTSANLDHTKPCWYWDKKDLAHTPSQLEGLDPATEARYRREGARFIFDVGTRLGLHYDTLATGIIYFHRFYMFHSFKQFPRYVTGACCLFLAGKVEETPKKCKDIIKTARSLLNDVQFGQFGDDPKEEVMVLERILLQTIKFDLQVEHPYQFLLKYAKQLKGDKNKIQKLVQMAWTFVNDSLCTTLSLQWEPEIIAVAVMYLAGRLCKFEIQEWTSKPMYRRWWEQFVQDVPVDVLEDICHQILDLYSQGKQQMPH
T1 sequence (Q16531 whole entry): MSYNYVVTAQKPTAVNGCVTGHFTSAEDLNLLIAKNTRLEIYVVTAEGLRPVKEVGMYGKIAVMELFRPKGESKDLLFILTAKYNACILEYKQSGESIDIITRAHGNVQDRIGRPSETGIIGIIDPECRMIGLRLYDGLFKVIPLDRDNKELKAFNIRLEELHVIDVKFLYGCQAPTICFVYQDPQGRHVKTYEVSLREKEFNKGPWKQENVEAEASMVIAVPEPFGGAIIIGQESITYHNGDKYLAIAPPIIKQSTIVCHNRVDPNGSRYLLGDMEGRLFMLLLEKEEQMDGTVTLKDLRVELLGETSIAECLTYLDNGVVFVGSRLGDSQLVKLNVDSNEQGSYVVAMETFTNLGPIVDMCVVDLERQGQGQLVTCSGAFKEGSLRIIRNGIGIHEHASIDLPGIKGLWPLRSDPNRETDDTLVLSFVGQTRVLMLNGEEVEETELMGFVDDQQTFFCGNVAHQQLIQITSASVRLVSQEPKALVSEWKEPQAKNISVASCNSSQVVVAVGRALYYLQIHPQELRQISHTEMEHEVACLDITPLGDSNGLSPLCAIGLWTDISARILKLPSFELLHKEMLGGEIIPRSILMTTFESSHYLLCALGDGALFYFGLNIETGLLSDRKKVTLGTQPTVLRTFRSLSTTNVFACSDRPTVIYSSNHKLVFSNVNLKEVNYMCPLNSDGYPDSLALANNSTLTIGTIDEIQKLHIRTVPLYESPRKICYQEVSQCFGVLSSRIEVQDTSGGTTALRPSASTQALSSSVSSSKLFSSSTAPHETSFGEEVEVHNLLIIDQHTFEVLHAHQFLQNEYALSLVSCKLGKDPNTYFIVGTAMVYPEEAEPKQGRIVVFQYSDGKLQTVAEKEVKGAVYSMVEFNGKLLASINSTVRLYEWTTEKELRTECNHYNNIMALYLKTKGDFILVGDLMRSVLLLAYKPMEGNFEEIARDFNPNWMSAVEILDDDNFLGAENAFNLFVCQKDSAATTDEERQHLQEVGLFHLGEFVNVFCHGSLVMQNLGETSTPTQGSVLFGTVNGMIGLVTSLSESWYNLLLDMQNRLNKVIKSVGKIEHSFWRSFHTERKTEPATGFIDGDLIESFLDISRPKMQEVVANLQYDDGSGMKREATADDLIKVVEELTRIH
Text: A 70 μs delay was employed to reduce background fluorescence. The TR-FRET signal was obtained through calculating the ratio of 520 nm to 490 nm fluorescence, and Prism 9 (GraphPad) was used for further data analysis.

[2] = test system: HEK293T cells; test: Drug sensitivity assay (CellTiter-Glo viability) with or without MLN4924 pretreatment; assay type: cell-based, human; settings: Supplementary Table 2; for EC50: Homo sapiens, HEK-293T, HEK293T viability, 72 h, compound alone, read-out: Cellular assays EC50; for Toxicity rescue: MLN4924-mediated cytotoxicity rescue, 10 µM used where n.d.
Experimental: HEK293T–Cas9 cells were resuspended at 0.15 × 10^6 ml^−1 treated with DMSO or 100 nM MLN4924 and plated on 384-well plates. After 2 h, the indicated drugs were dispensed with a D300 digital dispenser (Tecan). After 3 days of drug exposure, cell viability was assessed using the CellTiter-Glo luminescent assay (Promega, G7572) on an CLARIOstar Plus, MARS 3.4 (BMG LabTech). Cell viabilities were calculated relative to DMSO controls.

[3] = Supplementary Table 2, read-out: TR-FRET EC50 TR-FRET
[4] = in vitro complex formation, 50 nM CDK12–cyclin K, 100 nM DDB1, text and figures, read-out: TR-FRET EC50
[5] = compound concentration 79.2001 nM
[6] = compound concentration 158.4 nM
[7] = compound concentration 309.6 nM
[8] = compound concentration 626.401 nM
[9] = compound concentration 1252.8 nM
[10] = compound concentration 9936.01 nM
[11] = compound concentration 20016 nM

EC50 [1, 3]: 35.6 nM | TR-FRET signal ([1]; compound concentration 0.468 nM): 0.2624 and 0.2805 | TR-FRET signal at compound concentration 0.468 nM ([1]; compound concentration 0.468 nM, raw replicate titration data): 0.2624 and 0.2805 | TR-FRET signal ([1]; compound concentration 2.16 nM): 0.2884 and 0.3105 | TR-FRET signal at compound concentration 2.16 nM ([1]; compound concentration 2.16 nM, raw replicate titration data): 0.2884 and 0.3105 | TR-FRET signal ([1]; compound concentration 3.6 nM): 0.3317 and 0.3563 | TR-FRET signal at compound concentration 3.6 nM ([1]; compound concentration 3.6 nM, raw replicate titration data): 0.3317 and 0.3563 | TR-FRET signal ([1]; compound concentration 7.92001 nM): 0.4199 and 0.4425 | TR-FRET signal at compound concentration 7.92001 nM ([1]; compound concentration 7.92001 nM, raw replicate titration data): 0.4199 and 0.4425 | TR-FRET signal ([1]; compound concentration 15.84 nM): 0.5444 and 0.5762 | TR-FRET signal at compound concentration 15.84 nM ([1]; compound concentration 15.84 nM, raw replicate titration data): 0.5444 and 0.5762 | TR-FRET signal ([1]; compound concentration 30.96 nM): 0.7696 and 0.7908 | TR-FRET signal at compound concentration 30.96 nM ([1]; compound concentration 30.96 nM, raw replicate titration data): 0.7696 and 0.7908 | TR-FRET signal ([1]; compound concentration 62.6401 nM): 1.019 and 1.061 | TR-FRET signal at compound concentration 62.6401 nM ([1]; compound concentration 62.6401 nM, raw replicate titration data): 1.019 and 1.061 | TR-FRET signal ([1]; compound concentration 125.28 nM): 1.199 and 1.278 | TR-FRET signal at compound concentration 125.28 nM ([1]; compound concentration 125.28 nM, raw replicate titration data): 1.199 and 1.278 | TR-FRET signal ([1]; compound concentration 244.8 nM): 1.2725 and 1.386 | TR-FRET signal at compound concentration 244.8 nM ([1]; compound concentration 244.8 nM, raw replicate titration data): 1.2725 and 1.386 | TR-FRET signal ([1]; compound concentration 993.601 nM): 1.352 and 1.424 | TR-FRET signal at compound concentration 993.601 nM ([1]; compound concentration 993.601 nM, raw replicate titration data): 1.352 and 1.424 | TR-FRET signal ([1]; compound concentration 2001.6 nM): 1.301 and 1.386 | TR-FRET signal at compound concentration 2001.6 nM ([1]; compound concentration 2001.6 nM, raw replicate titration data): 1.301 and 1.386 | EC50 [1, 4]: 36 ± 2 nM
SMILES: Cn1cc(-n2cnc3c(NCc4nc5ccccc5[nH]4)nc(N4CCOCC4)nc32)cn1 [DS55]
EC50 [2]: 1.03 µM | Toxicity rescue [2]: 336%

EC50 [1, 3]: ~2200 nM | TR-FRET signal ([1]; compound concentration 4.68 nM): 0.2045 and 0.2293 | TR-FRET signal ([1]; compound concentration 21.6 nM): 0.2001 and 0.225 | TR-FRET signal ([1]; compound concentration 36 nM): 0.2055 and 0.2312 | TR-FRET signal [1, 5]: 0.2131 and 0.2461 | TR-FRET signal [1, 6]: 0.2289 and 0.2537 | TR-FRET signal [1, 7]: 0.2472 and 0.27 | TR-FRET signal [1, 8]: 0.294 and 0.3255 | TR-FRET signal [1, 9]: 0.3562 and 0.4045 | TR-FRET signal ([1]; compound concentration 2448 nM): 0.4507 and 0.5009 | TR-FRET signal [1, 10]: 0.6036 and 0.6674 | TR-FRET signal [1, 11]: 0.6334 and 0.6963 | EC50 [1, 4]: 2200 ± 326 nM
SMILES: Cn1cc(-n2cnc3c(NCc4ccc(OCCO)cc4)nc(N4CCOCC4)nc32)cn1 [DS62]
DDB1–CDK12 complex formation, result in words ([1]; in vitro TR-FRET): incompatible with the DDB1–CDK12 interface | EC50 [2]: > 10 µM | Toxicity rescue [2]: 0%

SMILES: CC[C@H](CO)Nc1nc(NCc2ccccc2)c2ncn(C(C)C)c2n1 [Roscovitine]
Toxicity rescue [2]: 0%

EC50 [1, 3]: 627 nM | TR-FRET signal at compound concentration ([1]; compound concentration 4.68 nM): 0.1284 and 0.1304 | TR-FRET signal at compound concentration ([1]; compound concentration 21.6 nM): 0.1505 and 0.151 | TR-FRET signal at compound concentration ([1]; compound concentration 36 nM): 0.1775 and 0.1803 | TR-FRET signal at compound concentration [1, 5]: 0.2245 and 0.2264 | TR-FRET signal at compound concentration [1, 6]: 0.2818 and 0.3032 | TR-FRET signal at compound concentration [1, 7]: 0.3899 and 0.4001 | TR-FRET signal at compound concentration [1, 8]: 0.5107 and 0.5141 | TR-FRET signal at compound concentration [1, 9]: 0.639 and 0.6296 | TR-FRET signal at compound concentration ([1]; compound concentration 2448 nM): 0.7343 and 0.7319 | TR-FRET signal at compound concentration [1, 10]: 0.8755 and 0.8533 | TR-FRET signal at compound concentration [1, 11]: 0.861 and 0.8686
SMILES: CC[C@H](CO)Nc1nc(NCCCCn2c(=O)oc3ccccc32)c2ncn(C(C)C)c2n1 [DS46]
EC50 [2]: > 10 µM | Toxicity rescue [2]: 0%

TR-FRET signal at compound concentration 4.68 nM ([1]; compound concentration 4.68 nM, raw replicate titration data): 0.1981 and 0.2221 | TR-FRET signal at compound concentration 21.6 nM ([1]; compound concentration 21.6 nM, raw replicate titration data): 0.2108 and 0.2312 | TR-FRET signal at compound concentration 36 nM ([1]; compound concentration 36 nM, raw replicate titration data): 0.221 and 0.2484 | TR-FRET signal at compound concentration 79.2001 nM ([1]; compound concentration 79.2001 nM, raw replicate titration data): 0.2309 and 0.2483 | TR-FRET signal at compound concentration 158.4 nM ([1]; compound concentration 158.4 nM, raw replicate titration data): 0.2488 and 0.2752 | TR-FRET signal at compound concentration 309.6 nM ([1]; compound concentration 309.6 nM, raw replicate titration data): 0.2871 and 0.3205 | TR-FRET signal at compound concentration 626.401 nM ([1]; compound concentration 626.401 nM, raw replicate titration data): 0.3642 and 0.3972 | TR-FRET signal at compound concentration 1252.8 nM ([1]; compound concentration 1252.8 nM, raw replicate titration data): 0.4852 and 0.5291 | TR-FRET signal at compound concentration 2448 nM ([1]; compound concentration 2448 nM, raw replicate titration data): 0.6251 and 0.6926 | TR-FRET signal at compound concentration 9936.01 nM ([1]; compound concentration 9936.01 nM, raw replicate titration data): 0.9055 and 1.021 | TR-FRET signal at compound concentration 20016 nM ([1]; compound concentration 20016 nM, raw replicate titration data): 0.9207 and 1.03 | EC50 [1, 4]: 2110 ± 252 nM
SMILES: Cn1cc(-n2cnc3c(NCc4cc5ccccc5[nH]4)nc(N4CCOCC4)nc32)cn1 [DS56]
